Assay results: publication PMC10821025, “Bioprospection of Tenellins Produced by the Entomopathogenic Fungus Beauveria neobassiana” (Journal of Fungi, 2024)
Converted amounts (≈) assume the structure as drawn. Like-named read-outs stand apart in the source and are kept apart here.

What was measured:
[1] = test system: Acinetobacter baumanii [DSM 30008]; experiment: Serial dilution assay (MIC); format: cell-based; settings: Acinetobacter baumannii, DSM30008
Description: (§1) All isolated compounds were assessed for their antimicrobial activity using a serial dilution assay over a concentration range from 67 to 0.5 µg/mL following the previously described protocols. In brief, the antimicrobial activity of all isolated metabolites was assessed by determining their minimum inhibitory concentration (MIC) against a range of different pathogens, including five fungal species: Candida albicans [DSM 1665], Mucor hiemalis [DSM 2656], Schizosaccharomyces pombe [DSM 70572], Rhodotorula glutinis [DSM 10134], and Wickerhamomyces anomalus [DSM 6766], as well as various Gram-positive: Staphylococcus aureus [DSM 346], Bacillus subtilis [DSM 10], Mycolicibacterium smegmatis [ATCC 700084], and Gram-negative bacteria: Acinetobacter baumanii [DSM 30008], Escherichia coli [DSM 1116], Chromobacterium violaceum [DSM 30191], and Pseudomonas aeruginosa [PA14]. In our experiments, gentamicin served as the positive control against most bacteria, while nystatin acted as the positive control against all fungi. For specific microorganisms, namely A. baumannii, B. subtilis, and M. smegmatis, ciprofloxacin, oxytetracycline, and kanamycin were used as positive controls, respectively.

[2] = test system: mouse fibroblasts (L-929); experiment: Cytotoxicity assay, L929; format: cell-based; settings: L929 (fibroblast), 5 days of incubation
Description: (§2) The cytotoxicity of isolated compounds was determined as previously described over a concentration range between […] against two mammalian cell lines: mouse fibroblasts (L-929) and human endocervical adenocarcinoma (KB-3.1). […] Following 5 days of incubation, we determined the minimum concentration of the tested compounds required to achieve 50% growth inhibition, expressed as IC50 values.

[3] = test system: human endocervical adenocarcinoma (KB-3.1); experiment: Cytotoxicity assay, KB3.1; format: cell-based; settings: 5 days of incubation
Description: as §2

[4] = test system: Bacillus subtilis [DSM 10]; experiment: Serial dilution assay (MIC); format: cell-based
Description: as §1

[5] = test system: Candida albicans [DSM 1665]; experiment: Serial dilution assay (MIC); format: cell-based
Description: as §1

[6] = test system: Escherichia coli [DSM 1116]; experiment: Serial dilution assay (MIC); format: cell-based
Description: as §1

[7] = test system: Mucor hiemalis [DSM 2656]; experiment: Serial dilution assay (MIC); format: cell-based
Description: as §1

[8] = test system: Mycolicibacterium smegmatis [ATCC 700084]; experiment: Serial dilution assay (MIC); format: cell-based; settings: for MIC: Mycolicibacterium smegmatis, ATCC700084
Description: as §1

[9] = test system: Pseudomonas aeruginosa [PA14]; experiment: Serial dilution assay (MIC); format: cell-based
Description: as §1

[10] = test system: Staphylococcus aureus [DSM 346]; experiment: Serial dilution assay (MIC); format: cell-based
Description: as §1

[11] = test system: S. aureus (DSM 1104) biofilm formation; experiment: Biofilm inhibition assay (Crystal Violet staining); format: cell-based, Staphylococcus aureus; settings: for concentration below which biofilm inhibitory activity is lost: S. aureus biofilm, tested 125–7.8 µg/mL; for Biofilm inhibition (% ± SD): S. aureus (DSM 1104)
Description: The compounds were evaluated for their ability to inhibit S. aureus (DSM 1104) biofilm formation, following the established procedure. Briefly, serially diluted compounds (125–7.8 µg/mL) were co-incubated with S. aureus in 96-well plates in CASO medium supplemented with 4% of glucose (see Supplementary Materials). Biofilm inhibition was assessed by using Crystal Violet staining after […], with microporenic acid A serving as a positive control and methanol as solvent control.
Biofilm inhibition assays were condu cted acco rding to th e methodolo g y previousl y described (Soliga et al., 2021), targeting the inhibition of biofilm formation in Staphylococcus aureus […]
S. aureus were cultured i n LB and CASO medium at 37 °C for 18 h, respect ivel y, in a shaker at 120 rpm after being thawed from a -20 °C stock solution. The culture's optical densit y at 600 nm (OD600) was measured and adjusted to a 0.1 McFarland standard in M63 minimal medium supplemented with necessar y nutrients and CASO medi um with 4% glucose for S. aureus, respectively. Microtiter plates were loaded with 150 µL of the bacterial suspension containing s eriall y diluted test compounds (7.8 -125 µg/m L) and incubated for 24 h at 37 °C. The evaluation of biofilm inhibition was performed by staining the biofilm with 0.1% cr ystal violet (CV). After staining, the plates were washed, and the biofilm dissolved in 95% ethanol. The absorbance of the dissolved biofilm was measured at 530 nm using a plat e reader. Negative control involved methanol (2.5%) while microporenic acid A at a concentration range of 7.8 to 125 µg/mL were used as the positive control for S. aureus (Chepkirui et al., 2018). All experiments were performed three times, and the standard deviation (SD) was maintained at or below 15% for S. aureus .
Differences between sam ples and the control grou p were determined b y a t wo-tailed Student’s t-test. Statistical significan ce was defined as p < 0.01. Anal ysis was carri ed out using GraphPad Prism 9® (GraphPad Software, San Diego, CA, USA). […]

[12] = test system: Chromobacterium violaceum [DSM 30191]; experiment: Serial dilution assay (MIC); format: cell-based
Description: as §1

[13] = test system: lung cancer (A-549) cell line; experiment: Cytotoxicity assay, A549; format: cell-based; settings: Homo sapiens
[14] = test system: breast cancer (MCF-7) cell line; experiment: Cytotoxicity assay, MCF-7; format: cell-based; settings: Homo sapiens, MCF7, 120 h
[15] = test system: Rhodotorula glutinis [DSM 10134]; experiment: Serial dilution assay (MIC); format: cell-based
Description: as §1

[16] = test system: Schizosaccharomyces pombe [DSM 70572]; experiment: Serial dilution assay (MIC); format: cell-based
Description: as §1

[17] = test system: Wickerhamomyces anomalus [DSM 6766]; experiment: Serial dilution assay (MIC); format: cell-based
Description: as §1

[18] = Homo sapiens, KB 3-1, 120 h, KB3.1 (endocervical adenocarcinoma)
[19] = KB3.1 (endocervical adenocarcinoma)
[20] = Staphylococcus aureus, DSM1104, read-out: Biofilm inhibition (% ± SD), S. aureus (DSM 1104), 62.5 µg/ml
[21] = Staphylococcus aureus, DSM1104, read-out: Biofilm inhibition (% ± SD), S. aureus (DSM 1104), 125 µg/ml

O=C(O)c1cn(C2CC2)c2cc(N3CCNCC3)c(F)cc2c1=O [Ciprofloxacin, reference compound]
MIC [1]: 0.52 µg/mL (≈ 1.57 µM)

O=C(O)c1c(O)c(-c2ccc(O)cc2)cn(O)c1=O [Compound 1, Pretenellin C]
IC50 (µM) ([2]; listed as pretenellin C (1)): weak or no activity | IC50 ([2]; Mus musculus, L929, 120 h): > 37 µg/mL | IC50 ([3]; Homo sapiens, KB 3-1, 120 h, KB3.1 (ovary)): > 37 µg/mL | IC50 (µM) ([3]; KB3.1 (endocervical adenocarcinoma), listed as pretenellin C (1)): weak or no activity | MIC ([4]; DSM10, read-out: MIC): > 67 µg/mL | MIC ([5]; DSM1665, read-out: MIC): > 67 µg/mL | MIC ([6]; DSM1116, read-out: MIC): > 67 µg/mL | MIC ([7]; DSM2656, read-out: MIC): > 67 µg/mL | MIC ([8]; Mycobacterium smegmatis, read-out: MIC): > 67 µg/mL | MIC ([9]; read-out: MIC): > 67 µg/mL | MIC ([10]; DSM346, read-out: MIC): > 67 µg/mL | concentration below which biofilm inhibitory activity is lost [11]: 31.3 µg/mL | inhibition at 31.25 µg/mL ([11]; Staphylococcus aureus, DSM1104, S. aureus (DSM 1104), 31.25 µg/ml, read-out: Biofilm inhibition (% ± SD)): 46 ± 9% | inhibition at 62.5 µg/mL ([11]; Staphylococcus aureus, DSM1104, S. aureus (DSM 1104), 62.5 µg/ml, read-out: Biofilm inhibition (% ± SD)): 63 ± 16% | inhibition at 125 µg/mL ([11]; Staphylococcus aureus, DSM1104, S. aureus (DSM 1104), 125 µg/ml, read-out: Biofilm inhibition (% ± SD)): 74 ± 5%

CCC(C)/C=C(C)/C=C/C(=O)c1c(O)c(-c2ccc(O)cc2)c[nH]c1=O (stereo not drawn) [Compound 3, Pretenellin B]
IC50 (µM) [2]: weak or no activity | IC50 ([2]; Mus musculus, L929, 120 h): 48.2 µM | IC50 [3, 18]: 20.2 µM | IC50 (µM) [3, 19]: weak or no activity | MIC ([4]; DSM10): 66.6 µg/mL (≈ 188 µM) | MIC ([5]; DSM1665): > 67 µg/mL | MIC ([12]; DSM30191): > 67 µg/mL | MIC ([6]; DSM1116): > 67 µg/mL | MIC ([7]; DSM2656): > 67 µg/mL | MIC [8]: > 67 µg/mL | MIC [9]: > 67 µg/mL | MIC ([10]; DSM346): 66.6 µg/mL (≈ 188 µM) | inhibitory activity on S. aureus biofilm formation (in words) ([11]; 125–7.8 µg/mL): promising activities in a dose-dependent manner | Biofilm inhibition (% ± SD) ([11]; 7.8 µg/ml, listed as pretenellin B (3)): ca. 30% | inhibition at 7.8 µg/mL ([11]; Staphylococcus aureus, DSM1104, read-out: Biofilm inhibition (% ± SD), S. aureus (DSM 1104), 7.8 µg/ml): 37 ± 7% | inhibition at 15.62 µg/mL ([11]; Staphylococcus aureus, DSM1104, read-out: Biofilm inhibition (% ± SD), S. aureus (DSM 1104), 15.62 µg/ml): 52 ± 6% | inhibition at 31.25 µg/mL ([11]; Staphylococcus aureus, DSM1104, read-out: Biofilm inhibition (% ± SD), S. aureus (DSM 1104), 31.25 µg/ml): 79 ± 8% | inhibition at 62.5 µg/mL [11, 20]: 83 ± 6% | inhibition at 125 µg/mL [11, 21]: 83 ± 6%

CCC(/C=C(C)/C=C/C(=O)c1c(O)c(-c2ccc(O)cc2)c[nH]c1=O)CO (stereo not drawn) [Compound 6, Pyridovericin]
IC50 [2]: 5.7 µM | IC50 ([2]; Mus musculus, L929, 120 h): 4.9 to 6.8 µM | IC50 [3, 18]: 4.9 to 6.8 µM | IC50 [3, 19]: 4.9 µM | IC50 ([13]; 120 h, A549 (lung), 5 days of incubation, read-out: IC50): 24100 nM | IC50 ([14]; MCF-7 (breast), 5 days of incubation, read-out: IC50): 7300 nM | MIC ([4]; DSM10): 66.6 µg/mL (≈ 180 µM) | MIC ([5]; DSM1665): > 67 µg/mL | MIC ([6]; DSM1116): > 67 µg/mL | MIC ([7]; DSM2656): > 67 µg/mL | MIC [8]: > 67 µg/mL | MIC [9]: > 67 µg/mL | MIC ([10]; DSM346): 66.6 µg/mL (≈ 180 µM) | concentration below which biofilm inhibitory activity is lost [11]: 62.5 µg/mL | inhibition at 62.5 µg/mL [11, 20]: 48 ± 5% | inhibition at 125 µg/mL [11, 21]: 64 ± 14%

C/C(=C\c1csc(C)n1)[C@@H]1C[C@@H]2O[C@]2(C)CCC[C@H](C)[C@H](O)[C@@H](C)C(=O)C(C)(C)[C@@H](O)CC(=O)O1 [Epothilone B, reference compound]
IC50 ([13]; A549, 120 h, read-out: IC50, Positive Control Epothilone B (nM)): 0.05 nM | IC50 ([14]; read-out: IC50, Positive Control Epothilone B (nM)): 0.07 nM

CNC(C)C1CCC(N)C(OC2C(N)CC(N)C(OC3OCC(C)(O)C(NC)C3O)C2O)O1 (stereo not drawn) [Gentamycin, reference compound]
MIC ([12]; DSM30191, read-out: MIC): 1.7 µg/mL (≈ 3.56 µM) | MIC ([6]; DSM1116, read-out: MIC): 0.42 µg/mL (≈ 0.879 µM) | MIC ([9]; read-out: MIC): 0.21 µg/mL (≈ 0.44 µM) | MIC ([10]; DSM346, read-out: MIC): 0.21 µg/mL (≈ 0.44 µM)

NC[C@H]1O[C@H](O[C@H]2[C@H](O)[C@@H](O[C@H]3O[C@H](CO)[C@@H](O)[C@H](N)[C@H]3O)[C@H](N)C[C@@H]2N)[C@H](O)[C@@H](O)[C@@H]1O [Kanymycin, reference compound]
MIC (µg/mL) ([8]; Mycobacterium smegmatis): 1.70 ^K µg/mL

CC(C)=CCC/C(C)=C/CC/C(C)=C/CC/C(C)=C/CO[C@@H](C(=O)O)[C@H](CC(=O)O)C(=O)O [Microporenic acid A, reference compound]
Biofilm inhibition (% ± SD) ([11]; 7.8 µg/ml): 41 ± 9% | Biofilm inhibition (% ± SD) ([11]; 15.62 µg/ml): 70 ± 13% | Biofilm inhibition (% ± SD) ([11]; 31.25 µg/ml): 85 ± 1% | Biofilm inhibition (% ± SD) ([11]; 62.5 µg/ml): 84 ± 1% | Biofilm inhibition (% ± SD) ([11]; 125 µg/ml): 86 ± 0%

C[C@@H]1[C@H](O)[C@@H](C)/C=C/C=C/CC/C=C/C=C/C=C/C=C/C(O[C@H]2O[C@H](C)[C@@H](O)[C@H](N)[C@@H]2O)CC2O[C@](O)(CC(O)C(O)CCC(O)CC(O)CC(O)CC(=O)O[C@H]1C)CC(O)C2C(=O)O (stereo partly drawn) [Nystatin, reference compound]
MIC (µg/mL) [5]: 8.3 ^N µg/mL | MIC (µg/mL) [7]: 8.30 ^N µg/mL | MIC (µg/mL) [15]: 4.20 ^N µg/mL | MIC (µg/mL) [16]: 4.20 ^N µg/mL | MIC (µg/mL) [17]: 16.6 ^N µg/mL

CN(C)[C@@H]1C(O)=C(C(N)=O)C(=O)[C@@]2(O)C(O)=C3C(=O)c4c(O)cccc4[C@@](C)(O)[C@H]3[C@H](O)[C@@H]12 [Oxytetracycline, reference compound]
MIC ([4]; DSM10, read-out: MIC): 16.6 µg/mL (≈ 36.1 µM)
